In ChEMBL document CHEMBL3885861, “Open TG-GATES”:

Organism: Rattus norvegicus
Experiment: Open TG-GATES - Regimen: Single
Format: toxicity, organism-based, Sprague-Dawley
Design: regimen Single, gender Male, age 6 weeks
Conditions: in vivo, po, 0 mg/kg, route gavage, dose level Control; for APTT / Bas / Eos / Fbg / Hb / Ht / Lym / MCH / MCHC / MCV / Mono / Neu / PT / Plat / RBC / Ret / WBC: tissue Blood; for KIDNEY_L / KIDNEY_R / KIDNEY_TOTAL: tissue Kidney; for LIVER: tissue Liver; for A/G / ALP / ALT / AST / BUN / CRE / Ca / Cl / DBIL / GLC / IP / K / LDH / Na / PL / RALB / TBIL / TC / TG / TP / gamma-GTP: tissue Plasma

O=C(N[C@H](CO)[C@H](O)c1ccc([N+](=O)[O-])cc1)C(Cl)Cl [CHLORAMPHENICOL]
TERMINAL_BW (3 h): 223.3 g
APTT (3 h): 17.4 s
Bas (3 h): 0%
Eos (3 h): 1%
Fbg (3 h): 266.4 mg/dL
Hb (3 h): 13.2 g/dL
Ht (3 h): 38.7%
Lym (3 h): 79.8%
MCH (3 h): 21.8 pg
MCHC (3 h): 34.2%
MCV (3 h): 63.8 fL
Mono (3 h): 3.8%
Neu (3 h): 15.2%
PT (3 h): 14.3 s
Plat (3 h): 115.3 x10_4/uL
RBC (3 h): 607 x10_4/ul
Ret (3 h): 8.3%
WBC (3 h): 80.9 x10_2/uL
KIDNEY_L (3 h): 0.9 g
KIDNEY_R (3 h): 0.9 g
KIDNEY_TOTAL (3 h): 1.8 g
LIVER (3 h): 10.1 g
A/G (3 h): 0.9
ALP (3 h): 1566 IU/L
ALT (3 h): 41.4 IU/L
AST (3 h): 73.8 IU/L
BUN (3 h): 9.4 mg/dL
CRE (3 h): 0.2 mg/dL
Ca (3 h): 11.6 mg/dL
Cl (3 h): 105 meq/L
DBIL (3 h): 0.012 mg/dL
GLC (3 h): 184.2 mg/dL
IP (3 h): 8.6 mg/dL
K (3 h): 4.2 meq/L
LDH (3 h): 57.6 IU/L
Na (3 h): 139.8 meq/L
PL (3 h): 136.2 mg/dL
RALB (3 h): 2.5 g/dL
TBIL (3 h): 0.062 mg/dL
TC (3 h): 74.6 mg/dL
TG (3 h): 66.4 mg/dL
TP (3 h): 5.3 g/dL
gamma-GTP (3 h): 1.2 IU/L
TERMINAL_BW (6 h): 222.3 g
APTT (6 h): 17.1 s
Bas (6 h): 0%
Eos (6 h): 0.8%
Fbg (6 h): 262.8 mg/dL
Hb (6 h): 13.3 g/dL
Ht (6 h): 42.9%
Lym (6 h): 72.2%
MCH (6 h): 21.6 pg
MCHC (6 h): 30.9%
MCV (6 h): 70.1 fL
Mono (6 h): 2.6%
Neu (6 h): 24.2%
PT (6 h): 14.6 s
Plat (6 h): 109 x10_4/uL
RBC (6 h): 613.2 x10_4/ul
Ret (6 h): 8.2%
WBC (6 h): 60.2 x10_2/uL
KIDNEY_L (6 h): 0.9 g
KIDNEY_R (6 h): 0.9 g
KIDNEY_TOTAL (6 h): 1.8 g
LIVER (6 h): 9.4 g
A/G (6 h): 0.9
ALP (6 h): 1343.8 IU/L
ALT (6 h): 38.8 IU/L
AST (6 h): 71.2 IU/L
BUN (6 h): 8.8 mg/dL
CRE (6 h): 0.2 mg/dL
Ca (6 h): 11.6 mg/dL
Cl (6 h): 105.2 meq/L
DBIL (6 h): 0.014 mg/dL
GLC (6 h): 187.6 mg/dL
IP (6 h): 10.4 mg/dL
K (6 h): 4.2 meq/L
LDH (6 h): 62.8 IU/L
Na (6 h): 141.8 meq/L
PL (6 h): 136.2 mg/dL
RALB (6 h): 2.5 g/dL
TBIL (6 h): 0.064 mg/dL
TC (6 h): 73.6 mg/dL
TG (6 h): 72.2 mg/dL
TP (6 h): 5.5 g/dL
gamma-GTP (6 h): 1.4 IU/L
TERMINAL_BW (9 h): 222.7 g
APTT (9 h): 16.3 s
Bas (9 h): 0%
Eos (9 h): 1%
Fbg (9 h): 256.4 mg/dL
Hb (9 h): 13.5 g/dL
Ht (9 h): 42.9%
Lym (9 h): 71.2%
MCH (9 h): 21.5 pg
MCHC (9 h): 31.5%
MCV (9 h): 68.1 fL
Mono (9 h): 2.6%
Neu (9 h): 25%
PT (9 h): 14.5 s
Plat (9 h): 114.3 x10_4/uL
RBC (9 h): 630.2 x10_4/ul
Ret (9 h): 8.4%
WBC (9 h): 69.8 x10_2/uL
KIDNEY_L (9 h): 0.9 g
KIDNEY_R (9 h): 0.9 g
KIDNEY_TOTAL (9 h): 1.9 g
LIVER (9 h): 8.8 g
A/G (9 h): 0.9
ALP (9 h): 1165.4 IU/L
ALT (9 h): 36 IU/L
AST (9 h): 67.8 IU/L
BUN (9 h): 8.6 mg/dL
CRE (9 h): 0.2 mg/dL
Ca (9 h): 11.2 mg/dL
Cl (9 h): 105.4 meq/L
DBIL (9 h): 0.012 mg/dL
GLC (9 h): 192.6 mg/dL
IP (9 h): 10.4 mg/dL
K (9 h): 4.1 meq/L
LDH (9 h): 74.4 IU/L
Na (9 h): 140.6 meq/L
PL (9 h): 145.8 mg/dL
RALB (9 h): 2.5 g/dL
TBIL (9 h): 0.068 mg/dL
TC (9 h): 81.4 mg/dL
TG (9 h): 49.6 mg/dL
TP (9 h): 5.4 g/dL
gamma-GTP (9 h): 1 IU/L
TERMINAL_BW (24 h): 230.2 g
APTT (24 h): 16.1 s
Bas (24 h): 0%
Eos (24 h): 1%
Fbg (24 h): 264 mg/dL
Hb (24 h): 13 g/dL
Ht (24 h): 40.9%
Lym (24 h): 80.6%
MCH (24 h): 21.3 pg
MCHC (24 h): 31.9%
MCV (24 h): 66.6 fL
Mono (24 h): 2.8%
Neu (24 h): 15.2%
PT (24 h): 14.3 s
Plat (24 h): 120.8 x10_4/uL
RBC (24 h): 614.4 x10_4/ul
Ret (24 h): 7.6%
WBC (24 h): 87.8 x10_2/uL
KIDNEY_L (24 h): 1 g
KIDNEY_R (24 h): 1 g
KIDNEY_TOTAL (24 h): 2 g
LIVER (24 h): 11.2 g
A/G (24 h): 0.9
ALP (24 h): 1650.8 IU/L
ALT (24 h): 48.2 IU/L
AST (24 h): 77 IU/L
BUN (24 h): 15.4 mg/dL
CRE (24 h): 0.2 mg/dL
Ca (24 h): 11.7 mg/dL
Cl (24 h): 103.6 meq/L
DBIL (24 h): 0.012 mg/dL
GLC (24 h): 191.6 mg/dL
IP (24 h): 8.8 mg/dL
K (24 h): 4.1 meq/L
LDH (24 h): 88.8 IU/L
Na (24 h): 141.2 meq/L
PL (24 h): 155.2 mg/dL
RALB (24 h): 2.6 g/dL
TBIL (24 h): 0.056 mg/dL
TC (24 h): 86.8 mg/dL
TG (24 h): 72.6 mg/dL
TP (24 h): 5.6 g/dL
gamma-GTP (24 h): 1.2 IU/L
